This is an account of results in ChEMBL document CHEMBL1155947, “Discovery of a novel series of benzoic acid derivatives as potent and selective human beta3 adrenergic receptor agonists with good oral bioavailability. 3. Phenylethanolaminotetraline (PEAT) skeleton containing biphenyl or biphenyl ether moiety” (J Med Chem, 2008).

A word on the bioavailability: it is dose-corrected exposure relative to a reference, in per cent. Usually pEC50 stands for the EC50 on a negative log10 scale, so that one unit is a factor of ten. What is called half-life is how long it takes for the measured level to halve. What is called AUC(0-t) is exposure summed from dosing to a finite time, without extrapolation to infinity. Broadly, the Cmax is the highest concentration seen after dosing. Broadly, the clearance is the rate of elimination divided by the concentration. Broadly, the inhibition in vivo is the change of the read-out against control, counted positive when it falls.

pEC50: −log10 of the molar value. Where only a bound is given, the exact number is not on record here.

Data set [1] can be described thus: Bioavailability in dog at 0.1 mg/mL, iv by cassette assay. It is filed as ADME, organism-based, Canis lupus familiaris. Particulars: in vivo.
For data set [2], the target named is Beta-2 adrenergic receptor (Homo sapiens, UniProt P07550). Put plainly: Agonist activity at human beta2 adrenergic receptor expressed in CHO cells assessed as cAMP accumulation. The format is functional, cell-based.
Data set [3] has as its system Canis familiaris. Put plainly: Ratio of AUC for drug to AUC for 3-[((7S)-7-{[(2R)-2-(3-Chlorophenyl)-2-hydroxyethyl]amino}-5,6,7,8-tetrahydro-2-naphthalenyl)oxy]benzoic acid hydrochloride in dog at 0.1 or 0.20 mg/kg, po by cassette dosing assay. Details: dose 0.2 mg/kg, route oral. Conditions: in vivo, 0.2 mg/kg. The format is ADME, organism-based, Canis lupus familiaris.

Data set [4] in a line: Terminal half life in dog at 0.1 mg/mL, iv by cassette assay. The format is ADME, organism-based, Canis lupus familiaris. Conditions: in vivo.
Data set [5] addresses Beta-3 adrenergic receptor (Homo sapiens, UniProt P13945). Put plainly: Agonist activity at human cloned beta3 adrenergic receptor expressed in CHO cells assessed as cAMP accumulation. It is filed as functional, cell-based. (In general: Changes in cAMP serve as a functional read-out for many G protein-coupled receptors.)
In data set [6] the test system is Canis familiaris. Put plainly: Ratio of Cmax for drug to Cmax for 3-[((7S)-7-{[(2R)-2-(3-Chlorophenyl)-2-hydroxyethyl]amino}-5,6,7,8-tetrahydro-2-naphthalenyl)oxy]benzoic acid hydrochloride in dog at 0.1 or 0.20 mg/kg, po by cassette dosing assay. It is filed as ADME, organism-based, Canis lupus familiaris. Details: dose 0.2 mg/kg, route oral. Particulars: in vivo, 0.2 mg/kg.

Data set [7] can be described thus: AUC (0 to 24 hrs) in dog at 0.32 mg/kg, po by cassette assay. Particulars: plasma. More on the design: time < 24 hr, dose 0.32 mg/kg, route oral. It is filed as ADME, organism-based, Canis lupus familiaris.
The next data set is filed under the species Homo sapiens. Put plainly: Ratio of EC50 for human cloned beta-1 adrenergic receptor to EC50 for human cloned beta3 adrenergic receptor.
Data set [8] can be described thus: Cmax in dog at 0.32 mg/kg, po by cassette assay. It is filed as ADME, organism-based, Canis lupus familiaris. More on the design: dose 0.32 mg/kg, route oral. Conditions: in vivo.
Data set [9] is described as follows: Total clearance in dog at 0.1 mg/mL, iv by cassette assay. It is filed as ADME, organism-based, Canis lupus familiaris. Conditions: in vivo.
The target of data set [10] is Beta-1 adrenergic receptor (Homo sapiens, UniProt P08588).
Description: Agonist activity at human cloned beta-1 adrenergic receptor expressed in CHO cells assessed as cAMP accumulation
Data set [11] relates to Canis familiaris. Put plainly: Ratio of AUC for drug to AUC for 4-((7S)-7-{[(2R)-2-(3-Chlorophenyl)-2-hydroxyethyl]amino}-5,6,7,8-tetrahydro-2-naphthalenyl)benzoic acid hydrochloride in dog at 0.1 or 0.20 mg/kg, po by cassette dosing assay. It is filed as ADME, organism-based, Canis lupus familiaris. More on the design: dose 0.2 mg/kg, route oral. Conditions: in vivo, 0.2 mg/kg.

In data set [12] the test system is Canis familiaris. Put plainly: Ratio of Cmax for drug to Cmax for 4-((7S)-7-{[(2R)-2-(3-Chlorophenyl)-2-hydroxyethyl]amino}-5,6,7,8-tetrahydro-2-naphthalenyl)benzoic acid hydrochloride in dog at 0.1 or 0.20 mg/kg, po by cassette dosing assay. The format is ADME, organism-based, Canis lupus familiaris. Details: dose 0.2 mg/kg, route oral. Conditions: in vivo, 0.2 mg/kg.

Data set [13] is described as follows: AUC (0 to 24 hrs) in dog at 0.2 mg/kg, po by cassette assay. Particulars: plasma. It is filed as ADME, organism-based, Canis lupus familiaris. More on the design: time < 24 hr, dose 0.2 mg/kg, route oral.
Data set [14] can be described thus: Cmax in dog at 0.2 mg/kg, po by cassette assay. It is filed as ADME, organism-based, Canis lupus familiaris. More on the design: dose 0.2 mg/kg, route oral. Conditions: in vivo.
Data set [15] in a line: Oral bioavailability in monkey at 0.83 mg/kg. The format is ADME, organism-based, Macaca mulatta. Conditions: rhesus monkey, in vivo.
The nature of data set [16]: Protein binding in Beagle dog serum at 32 ug/kg, iv. Conditions: 0.032 mg/kg, read-out: PB (converted). It is filed as ADME, organism-based, Canis lupus familiaris.
Data set [17] can be described thus: Oral bioavailability in dog at 0.83 mg/kg. The format is ADME, organism-based, Canis lupus familiaris. Particulars: in vivo.
Data set [18] is described as follows: Oral bioavailability in rat at 0.83 mg/kg. It is filed as ADME, organism-based. Particulars: in vivo.
In data set [19] the test system is Canis familiaris. Put plainly: Inhibition of carbachol-induced increase of intravesical pressure in Beagle dog OAB model at 32 ug/kg,. It is filed as functional. Particulars: Canis lupus familiaris.
Data set [20] is described as follows: Total clearance in dog at 0.1 mg/kg, iv by cassette assay. It is filed as ADME, organism-based, Canis lupus familiaris. Details: dose 0.1 mg/kg, route intravenous. Conditions: in vivo.
Data set [21] is described as follows: Terminal half life in dog at 0.1 mg/kg, iv by cassette assay. It is filed as ADME, organism-based, Canis lupus familiaris. More on the design: dose 0.1 mg/kg, route intravenous. Conditions: in vivo.
Data set [22] in a line: Oral bioavailability in dog at 0.1 mg/kg by cassette assay. The format is ADME, organism-based, Canis lupus familiaris. Particulars: in vivo.

Sequence of Beta-1 adrenergic receptor (P08588 whole entry): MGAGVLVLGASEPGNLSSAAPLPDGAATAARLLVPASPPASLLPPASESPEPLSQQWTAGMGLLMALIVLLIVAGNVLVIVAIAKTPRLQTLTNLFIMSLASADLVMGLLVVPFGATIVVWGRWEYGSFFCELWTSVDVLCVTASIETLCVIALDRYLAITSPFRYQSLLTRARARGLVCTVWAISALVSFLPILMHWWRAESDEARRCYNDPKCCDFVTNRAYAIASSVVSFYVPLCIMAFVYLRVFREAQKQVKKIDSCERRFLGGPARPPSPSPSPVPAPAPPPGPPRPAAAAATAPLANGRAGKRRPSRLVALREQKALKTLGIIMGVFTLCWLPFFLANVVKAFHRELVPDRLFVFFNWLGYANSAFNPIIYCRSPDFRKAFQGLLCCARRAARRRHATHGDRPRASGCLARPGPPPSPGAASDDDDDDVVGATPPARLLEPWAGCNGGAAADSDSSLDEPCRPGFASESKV
Sequence of Beta-3 adrenergic receptor (P13945 whole entry): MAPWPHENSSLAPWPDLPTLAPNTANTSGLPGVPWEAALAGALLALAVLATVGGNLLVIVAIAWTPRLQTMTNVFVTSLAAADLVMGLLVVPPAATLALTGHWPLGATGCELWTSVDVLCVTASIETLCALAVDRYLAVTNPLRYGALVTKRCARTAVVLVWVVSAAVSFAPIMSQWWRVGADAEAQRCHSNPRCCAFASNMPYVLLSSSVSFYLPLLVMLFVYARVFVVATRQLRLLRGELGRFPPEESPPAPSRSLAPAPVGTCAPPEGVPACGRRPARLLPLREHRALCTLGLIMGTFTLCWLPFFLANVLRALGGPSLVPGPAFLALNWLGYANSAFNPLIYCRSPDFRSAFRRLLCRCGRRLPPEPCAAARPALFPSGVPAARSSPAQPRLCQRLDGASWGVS
Sequence of Beta-2 adrenergic receptor (P07550 whole entry): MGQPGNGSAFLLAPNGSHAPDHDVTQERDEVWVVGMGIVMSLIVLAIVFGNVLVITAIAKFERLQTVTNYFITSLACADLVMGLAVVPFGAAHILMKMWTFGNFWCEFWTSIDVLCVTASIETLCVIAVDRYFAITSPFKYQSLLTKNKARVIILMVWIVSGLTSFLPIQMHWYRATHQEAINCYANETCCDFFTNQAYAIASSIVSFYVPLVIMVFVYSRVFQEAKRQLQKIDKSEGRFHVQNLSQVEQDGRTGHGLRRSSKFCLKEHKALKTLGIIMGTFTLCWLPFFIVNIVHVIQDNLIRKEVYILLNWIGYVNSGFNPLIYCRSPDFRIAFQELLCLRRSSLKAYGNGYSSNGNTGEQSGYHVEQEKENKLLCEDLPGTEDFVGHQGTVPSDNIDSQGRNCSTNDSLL

Compound `O=C(O)c1cccc(Oc2ccc3c(c2)C[C@@H](NC[C@H](O)c2cccc(Cl)c2)CC3)c1` came in with a bioavailability in data set [1] of 81%. In addition, the pEC50 in [2] was below 6.00; in data set [5], 8.15; in [10] it was below 6.00. In the data set on Canis familiaris [3], the “Ratio AUC” value is 1. For the same compound, the half-life in [4] was 7.9 h. For the same compound, in the data set on Canis familiaris [6], the Ratio was 1. The compound further yielded an exposure AUC(0-t) at 24 h in data set [7] of 2000 ng·h/mL. For the same compound, in the data set listed under Homo sapiens, the Ratio EC50 was above 138. Further, the concentration in data set [8] peaked (Cmax) at 151 ng/mL. This compound also showed a clearance in data set [9] of 2.4 mL/min/kg.

In the case of `O=C(O)c1cccc(Oc2ccc3c(c2)C[C@@H](NC[C@H](O)c2cccc(Cl)c2)CCC3)c1`, in data set [1], the bioavailability came out at 69%. In addition, the pEC50 in data set [2] is below 6.00; in [5] it was 8.35; in data set [10], 6.80. Also, the half-life in [4] was 3 h. For the same compound, in [7], the AUC(0-t) at 24 h was found to be 538 ng·h/mL. Besides, the Ratio EC50 in the data set filed under Homo sapiens is 35. The compound also displayed a Cmax in data set [8] of 65.7 ng/mL. This compound also returned a clearance in [9] of 6.8 mL/min/kg.

Compound `O=C(O)c1ccc(-c2ccc3c(c2)C[C@@H](NC[C@H](O)c2cccc(Cl)c2)CC3)cc1` gave a bioavailability in data set [1] of 71%. In addition, the pEC50 was below 6.00 in data set [2], 8.55 in data set [5] and below 6.00 in data set [10]. In data set [4], this compound showed a half-life of 12.2 h. Besides, the “Ratio AUC” value in the data set with Canis familiaris [11] is on record as 1. The Ratio in the data set with Canis familiaris [12] stood at 1. Besides, the Ratio EC50 in the data set filed under Homo sapiens is above 357. In addition, the AUC(0-t) at 24 h in data set [13] is 1980 ng·h/mL. The clearance in data set [9] is 1.2 mL/min/kg. In addition, the highest level in data set [14] (Cmax) was 97.4 ng/mL.

For `CCOC(=O)COc1ccc2c(c1)C[C@@H](NC[C@H](O)c1cccc(Cl)c1)CCC2`, the bioavailability in [15] was 35%; in [17], 73%; in data set [18] it was 29%. Moreover, the fraction unbound in [16] was 0.06. This compound returned an inhibition in vivo at 0.032 mg/kg in the data set on Canis familiaris [19] of 40.8%.

In the case of `CN(C)c1cc(Oc2ccc3c(c2)C[C@@H](NC[C@H](O)c2cccc(Cl)c2)CC3)cc(C(=O)O)c1`, the values for the pEC50 in data set [2], in data set [5] and in data set [10] were below 6.00, 8.49 and below 6.00, respectively. The compound further had a clearance in data set [20] of 2.38 mL/min/kg. Further, the “Ratio AUC” value in the data set with Canis familiaris [3] was 0.83. The half-life in [21] is 3.94 h. In addition, in data set [22], the bioavailability is above 95%. Moreover, the Ratio with Canis familiaris [6] is 1.18. Also, in the data set listed under Homo sapiens, the Ratio EC50 is above 312. Besides, the AUC(0-t) at 24 h in [13] came to 1470 ng·h/mL. The peak level in data set [14] (Cmax) was 189 ng/mL.
